Test results: patent publication US11981921B2, “TIL expansion processes using specific cytokine combinations and/or AKTi treatment” (Iovance Biotherapeutics, Inc., priority 2022, dated 2024)
Where two headings read alike, the source gives them in different places.

How the values were obtained:
TIL = test: AKT inhibition during ex vivo TIL expansion (REP); assay type: cell-based
Method: Patient tumors from different indications were received, fragmented, and subjected to an expansion protocol for TIL manufacturing. Different doses (0.3 μM and 1 μM) of the pan-AKT inhibitor (AKTi) ipatasertib were added to the culture during ex vivo expansion. The expansion potential, as well as the phenotypic and functional characteristics of TIL were evaluated on the final TIL product.

KILR® THP-1 cells = test: TIL cytotoxicity in coculture with KILR THP-1 cells; assay type: cell-based; details: 24 hrs coculture, 10:1, Invigo-T process
Method: TILs were then tested for cytotoxicity in an allogeneic environment after coculture for 24 hrs with KILR® THP-1 cells at a 10:1 effector-to-target cell. […] TILs were next stimulated every 3 days with TransAct followed by coculture for 24 hrs with KILR® THP-1 cells before being assessed for cytotoxicity and IFNg expression (as measured byflow cytometry staining).

TILs [1] = details: 1 or 2 uM given once or twice, with IL-2 1000 IU/ml + IL-21 10 ng/ml
Description: (§1) The overarching goal of these experiments is to examine the growth conditions during the whole expansion process of TILs to augment their stem-like attributes while improving their functional and phenotypic characteristics.
Frozen pre-REP TILs were thawed and REPed under different conditions in 24-well GREX plates. […] Pre-REP TILs from 3 different indications were thawed and REPped in a G-REX 24 well plate. The following conditions were included in the REP protocol used in 24-well G-Rex plates: • 1) Feeder:TIL ratio 250:1 with 5 million feeders and 20,000 TILs per well, OKT3 at 30 ng/mL, • 2) On day 0 the REP is initiated with 3 mL of CM2 with cytokines and compounds, • 3) On day five 5 mL of CM4 media was added to each well, • 4) All cytokines and compounds are added twice on day 0 and day 5.

TILs [2] = test system: TILs
Description: as §1
Pre-REP TILs from 3 different indications were thawed and REPped in a G-REX 24 well plate. Cytokines were given twice (Day 0 and Day 5 of pre-REP). The following conditions were included in the REP protocol used in 24-well G-Rex plates: • 1) Feeder:TIL ratio 250:1 with 5 million feeders and 20,000 TILs per well, OKT3 at 30 ng/mL, • 2) On day 0 the REP is initiated with 3 mL of CM2 with cytokines and compounds, • 3) On day five 5 mL of CM4 media was added to each well, • 4) All cytokines and compounds are added twice on day 0 and day 5.

TILs [3] = test: Evaluation of I-TIL process conditions (pre-REP and REP, 18 tumors); assay type: cell-based
Method: Tumors (N=18) were received and processed for both pre-REP and REP expansion to test and select a preferred set of conditions, nominated as the final I-TIL (invigorated TIL) conditions.
Cytokines were added twice on Day 0 and Day 5 of pre-REP.
Pre-REP cells were then frozen until all pre-REP samples were generated in order to initiate the REP together at the same time. Frozen pre-REP TILs were thawed and rested overnight in their corresponding conditions followed by REP in 24-well G-Rex plates. […] Cytokines were added twice on Day 0 and Day 5 and AZD5363 was only added once on Day 0 of REP.

TILs [4] = test system: TILs; remark: listed apart in the source
Method: This Example describes the evaluation of the effects of IL-21 (10 ng/ml)+ AZD5363 in combination with increasing doses of IL-2 or IL-15 and evaluation of the overall impact on preventing effector differentiation, promoting more stem-like attributes and improving functionality of TILs during REP. The overarching goal of these experiments is to examine the growth conditions during the whole expansion process of TILs to augment their stem-like attributes while improving their functional and phenotypic characteristics.
Frozen pre-REP TILs were thawed and REPed under different conditions in 24-well GREX plates. Cytokines were given twice (Day 0 and Day 5 of pre-REP). Pre-REP TILs from 3 different indications were thawed and REPped in a G-REX 24 well plate. The following conditions were included in the REP protocol used in 24-well G-Rex plates: • 1) Feeder:TIL ratio 250:1 with 5 million feeders and 20,000 TILs per well, OKT3 at 30 ng/mL, • 2) On day 0 the REP is initiated with 3 mL of CM2 with cytokines and compounds, • 3) On day five 5 mL of CM4 media was added to each well, • 4) All cytokines and compounds are added twice on day 0 and day 5. The following conditions were tested: IL-2 3000 IU/mL, IL-2 2000 IU/mL, IL-2 1000 IU/mL, IL-2 3000 IU/mL+IL-21 10 ng/ml, IL-2 2000 IU/mL+IL-21 10 ng/ml, IL-2 1000 IU/mL+IL-21 10 ng/ml, IL-2 3000 IU/mL+IL-21 10 ng/ml+2 uM AZD5363 (added once), IL-2 2000 IU/mL+IL-21 10 ng/ml+2 uM AZD5363 (added once), IL-2 1000 IU/mL+IL-21 10 ng/ml+2 uM AZD5363 (added once), and IL-15 10 ng/ml+IL-21 10 ng/ml+1 uM AZD5363 (added twice).

[5] = AKTi treatment during ex vivo expansion
[6] = with IL-15 10 ng/ml + IL-21 10 ng/ml

## CC(C)NC[C@@H](C(=O)N1CCN(c2ncnc3c2[C@H](C)C[C@H]3O)CC1)c1ccc(Cl)cc1 [AKTi, ipatasertib]
TIL; 1 μM dose, relative to control
  expansion and viability of TIL: equivalent
TIL; 1 μM dose, relative to control, present even after re-stimulation
  population of less differentiated CD39−CD69− cells: doubled
TIL; [5]
  cytotoxicity of TIL: increased cytotoxicity
  frequency of IFNγ+TNFα+CD8+ T cells: increase
TIL; CD39−CD69− cells after re-stimulation
  expression of CD38 and transcription factors T-bet and Tox: reduced expression

## AZD5363
KILR® THP-1 cells
  cytotoxicity with or without AZD5363: no significant difference
TILs [1]
  phenotypic changes on TILs (inhibitory receptors, activation, stem-like qualities, functionality): further beneficial phenotypic changes
TILs [2]; [6]
  effector differentiation, stem-like phenotype, functional responses, inhibitory receptor expression: induces many of the desired changes
TILs [2]; with IL-15 + IL-21, vs IL-2 1000 IU/ml and IL-21 10 ng/ml
  effects on increasing IFNg, TNFa and IL-2: more pronounced
TILs [3]; 2 uM once on Day 0 of REP, with IL-15 10 ng/ml + IL-21 10 ng/ml
  effector differentiation, stem-like phenotype, functional responses, inhibitory receptor expression: induces many of the desired changes
TILs [3]; with IL-15 + IL-21, vs IL-2 1000 IU/ml + IL-21 10 ng/ml + AZD5363
  effects on increasing IFNg, TNFa and IL-2: more pronounced
TILs [4]; 2 uM given once, with IL-2 1000 IU/ml + IL-21 10 ng/ml
  effector differentiation, stem-like phenotype, functional responses, inhibitory receptor expression: induces many of the desired changes
TILs [4]; IL-15 combination
  activation state of TILs: further reduced
TILs [4]; [6]
  effects on cytokine production, in particular IL-2: quite significant
TILs [4]; with IL-15 10 ng/ml + IL-21 10 ng/ml, vs IL-2 combination
  same effects with IL-15 instead of IL-2: comparable

## IL-15: cytokine used at 10 ng/ml with IL-21 during REP
TILs [3]; IL-15 conditions
  yield and viability of the process: significantly augmented
